Results published in PubChem BioAssay (NCI).
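Dose response: 5 concentrations. Exposure: 48 h. Format: 96-well plates. Endpoint: linear interpolation; highest concentration if not reached. GI50 is the concentration that inhibits growth by half. TGI is the concentration that stops growth completely.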

Experiments:
Assay in all cases: DTP human tumour cell line panel, 48 h
[1] = test system: SW-620 colon
[2] = test system: SN12C renal
[3] = test system: SK-OV-3 ovarian
[4] = test system: HL-60(TB) leukemia
[5] = test system: SK-MEL-28 melanoma
[6] = test system: MALME-3M melanoma
[7] = test system: BT-549 breast
[8] = test system: UO-31 renal
[9] = test system: OVCAR-8 ovarian
[10] = test system: OVCAR-4 ovarian
[11] = test system: SK-MEL-2 melanoma
[12] = test system: U251 CNS
[13] = test system: MOLT-4 leukemia
[14] = test system: SF-539 CNS
[15] = test system: UACC-62 melanoma
[16] = test system: HS 578T breast
[17] = test system: NCI-H460 lung
[18] = test system: A549 NSCLC
[19] = test system: RPMI-8226 leukemia
[20] = test system: NCI-H522 lung
[21] = test system: HOP-62 NSCLC
[22] = test system: COLO 205 colon
[23] = test system: CCRF-CEM leukemia
[24] = test system: LOX IMVI melanoma
[25] = test system: RXF 393 renal
[26] = test system: PC-3 prostate
[27] = test system: M14 melanoma
[28] = test system: NCI-H23 lung
[29] = test system: MCF7 breast
[30] = test system: HCT-116 colon
[31] = test system: HCC-2998 colon
[32] = test system: K-562 leukemia
[33] = test system: UACC-257 melanoma
[34] = test system: OVCAR-5 ovarian
[35] = test system: OVCAR-3 ovarian
[36] = test system: 786-0 renal
[37] = test system: HCT-15 colon
[38] = test system: HOP-92 NSCLC
[39] = test system: IGROV1 ovarian
[40] = test system: MDA-MB-231 breast
[41] = test system: NCI/ADR-RES ovarian
[42] = test system: SR leukemia
[43] = test system: HT29 colon
[44] = test system: SNB-75 CNS
[45] = test system: SF-295 CNS
[46] = test system: T-47D breast
[47] = test system: DU-145 prostate
[48] = test system: NCI-H226 lung
[49] = test system: SK-MEL-5 melanoma
[50] = test system: A498 renal
[51] = test system: ACHN renal
[52] = test system: SNB-19 CNS
[53] = test system: SF-268 CNS
[54] = test system: KM12 colon
[55] = test system: CAKI-1 renal
[56] = test system: MDA-MB-435

O=C1Nc2ccccc2/C1=C/C(=N/c1nnc(-c2ccc(Cl)cc2)s1)c1ccccc1
GI50 [1]: 1.21 µM | TGI [1]: 2.82 µM | GI50 [2]: 2.16 µM | TGI [2]: 5.97 µM | GI50 [3]: 5.86 µM | TGI [3]: 17.4 µM | GI50 [4]: 1.78 µM | TGI [4]: 5.54 µM | GI50 [5]: 2.36 µM | TGI [5]: 5.59 µM | GI50 [6]: 2.07 µM | TGI [6]: 6.18 µM | GI50 [7]: 1.79 µM | TGI [7]: 3.66 µM | GI50 [8]: 1.4 µM | TGI [8]: 3.48 µM | GI50 [9]: 2.81 µM | TGI [9]: 10.1 µM | GI50 [10]: 2.56 µM | TGI [10]: 12.2 µM | GI50 [11]: 3.21 µM | TGI [11]: 9.32 µM | GI50 [12]: 4.04 µM | TGI [12]: 15.5 µM | GI50 [13]: 2.27 µM | TGI [13]: 6.01 µM | GI50 [14]: 1.81 µM | TGI [14]: 4.08 µM | GI50 [15]: 1.93 µM | TGI [15]: 4.58 µM | GI50 [16]: 3.25 µM | TGI [16]: 16 µM | GI50 [17]: 5.95 µM | TGI [17]: 21.9 µM | GI50 [18]: 7.78 µM | TGI [18]: 23.8 µM | GI50 [19]: 2.07 µM | TGI [19]: 5.4 µM | GI50 [20]: 0.518 µM | TGI [20]: 1.21 µM | GI50 [21]: 7.16 µM | TGI [21]: 21.5 µM | GI50 [22]: 1.77 µM | TGI [22]: 3.4 µM | GI50 [23]: 1.16 µM | TGI [23]: 4.28 µM | GI50 [24]: 1.54 µM | TGI [24]: 3.13 µM | GI50 [25]: 1.5 µM | TGI [25]: 3.07 µM | GI50 [26]: 1.93 µM | TGI [26]: 5.88 µM | GI50 [27]: 2.37 µM | TGI [27]: 6.28 µM | GI50 [28]: 2.96 µM | TGI [28]: 11.2 µM | GI50 [29]: 2.36 µM | TGI [29]: 10.8 µM | GI50 [30]: 1.06 µM | TGI [30]: 2.38 µM | GI50 [31]: 8.11 µM | TGI [31]: 20.9 µM | GI50 [32]: 1.75 µM | TGI [32]: 11.4 µM | GI50 [33]: 2.82 µM | TGI [33]: 8.64 µM | GI50 [34]: 1.81 µM | TGI [34]: 4.86 µM | GI50 [35]: 1.26 µM | TGI [35]: 2.66 µM | GI50 [36]: 1.72 µM | TGI [36]: 3.4 µM | GI50 [37]: 1.4 µM | TGI [37]: 3.28 µM | GI50 [38]: 0.969 µM | TGI [38]: 3.03 µM | GI50 [39]: 2.1 µM | TGI [39]: 5.59 µM | GI50 [40]: 2.14 µM | TGI [40]: 6.21 µM | GI50 [41]: 3.31 µM | TGI [41]: 12.2 µM | GI50 [42]: 0.964 µM | TGI [42]: 6.05 µM | GI50 [43]: 1.94 µM | TGI [43]: 5.61 µM | GI50 [44]: 2.53 µM | TGI [44]: 13.7 µM | GI50 [45]: 11.6 µM | TGI [45]: 25.6 µM | GI50 [46]: 2.31 µM | TGI [46]: 10.2 µM | GI50 [47]: 2.52 µM | TGI [47]: 6.9 µM | GI50 [48]: 3.19 µM | TGI [48]: 13.4 µM | GI50 [49]: 12.6 µM | TGI [49]: 26.9 µM | GI50 [50]: 9.03 µM | TGI [50]: 26.1 µM | GI50 [51]: 1.41 µM | TGI [51]: 2.83 µM | GI50 [52]: 12.6 µM | TGI [52]: 25.4 µM | GI50 [53]: 4.25 µM | TGI [53]: 16.3 µM | GI50 [54]: 4.85 µM | TGI [54]: 15.6 µM | GI50 [55]: 1.43 µM | TGI [55]: 4.92 µM | GI50 [56]: 2.55 µM | TGI [56]: 7.23 µM

O=C1/C(=C/c2ccc(Cl)cc2Cl)CN(S(=O)(=O)c2ccccc2)C/C1=C\c1ccc(Cl)cc1Cl
GI50 [1]: 0.314 µM | TGI [1]: 2.54 µM | GI50 [2]: 0.288 µM | TGI [2]: 1.1 µM | GI50 [3]: 7.32 µM | TGI [3]: 98.9 µM | GI50 [4]: 0.731 µM | TGI [4]: > 19.9 µM | GI50 [5]: 8.29 µM | TGI [5]: > 100 µM | GI50 [6]: 7.2 µM | TGI [6]: > 100 µM | GI50 [7]: 0.617 µM | TGI [7]: 2.64 µM | GI50 [8]: 0.233 µM | TGI [8]: 0.675 µM | GI50 [9]: 0.313 µM | GI50 [10]: 0.291 µM | TGI [10]: > 96 µM | GI50 [11]: 15.4 µM | TGI [11]: > 100 µM | GI50 [12]: 0.173 µM | TGI [12]: 0.351 µM | GI50 [13]: 0.46 µM | TGI [13]: 12 µM | GI50 [14]: 0.315 µM | TGI [14]: 1.13 µM | GI50 [15]: 1.18 µM | TGI [15]: 4.41 µM | GI50 [16]: 0.322 µM | TGI [16]: 3.87 µM | GI50 [17]: 0.224 µM | TGI [17]: 0.498 µM | GI50 [18]: 0.316 µM | TGI [18]: 1.51 µM | GI50 [19]: 0.196 µM | TGI [19]: 0.562 µM | GI50 [20]: 1.13 µM | TGI [20]: 3.93 µM | GI50 [21]: 0.343 µM | GI50 [22]: 0.339 µM | TGI [22]: 1.21 µM | GI50 [23]: 0.291 µM | TGI [23]: 1.3 µM | GI50 [24]: 0.193 µM | TGI [24]: 0.395 µM | GI50 [25]: 1.05 µM | TGI [25]: 2.68 µM | GI50 [26]: 0.299 µM | TGI [26]: 0.979 µM | GI50 [27]: 2.77 µM | TGI [27]: > 100 µM | GI50 [28]: 0.381 µM | TGI [28]: 2.4 µM | GI50 [29]: 0.292 µM | TGI [29]: > 100 µM | GI50 [30]: 0.198 µM | TGI [30]: 0.421 µM | GI50 [31]: 0.379 µM | TGI [31]: 1.31 µM | GI50 [32]: 0.326 µM | TGI [32]: > 38.3 µM | GI50 [33]: 17.7 µM | TGI [33]: > 100 µM | GI50 [34]: 1.02 µM | TGI [34]: 4.65 µM | GI50 [35]: 0.259 µM | TGI [35]: 0.62 µM | GI50 [36]: 0.23 µM | TGI [36]: 0.509 µM | GI50 [37]: 0.226 µM | TGI [37]: 0.614 µM | GI50 [38]: 1.7 µM | TGI [38]: 5.55 µM | GI50 [39]: 0.344 µM | TGI [39]: 1.29 µM | GI50 [40]: 0.469 µM | TGI [40]: 2.67 µM | GI50 [41]: 1.15 µM | TGI [41]: > 100 µM | GI50 [42]: 0.198 µM | TGI [42]: 0.925 µM | GI50 [43]: 0.301 µM | TGI [43]: 0.907 µM | GI50 [44]: 0.473 µM | TGI [44]: 8.2 µM | GI50 [45]: 0.279 µM | TGI [45]: 1.99 µM | GI50 [46]: 0.594 µM | GI50 [47]: 0.466 µM | TGI [47]: 19.7 µM | GI50 [48]: 0.513 µM | TGI [48]: 1.35 µM | GI50 [49]: 14.5 µM | TGI [49]: > 100 µM | GI50 [50]: 1.5 µM | TGI [50]: 8.76 µM | GI50 [51]: 0.717 µM | TGI [51]: 6.88 µM | GI50 [52]: 0.496 µM | TGI [52]: 10.8 µM | GI50 [53]: 0.385 µM | TGI [53]: > 35.7 µM | GI50 [54]: 0.276 µM | TGI [54]: 0.728 µM | GI50 [55]: 0.817 µM | TGI [55]: 4.22 µM | GI50 [56]: 0.701 µM | TGI [56]: 2.89 µM
